This is an account of results in patent US9809626B2, “Antibacterial agents: salinamide derivatives” (priority 2012, dated 2017).

In brackets after ≈: the same amount, converted by molar mass. Numbered stars: 1 amine (or outer) side, 2 acyl side, 3 side chain; on linkers, the order of the positions; unused ones are H or OH. Bridge positions count the residues as written; N and C are the ends. Square brackets hold non-standard residues; d marks the D form. Peptide text beside a SMILES is read from it. * marks the point of attachment. X7 = C[C@@H](Oc1ccc([C@H](N[*:1])C(=O)[*:2])cc1)[C@](O)(/C=C/C(=O)[*:3])CNCCCCCCNC(=O)OC(C)(C)C; X6 = C[C@@H](Oc1ccc([C@H](N[*:1])C(=O)[*:2])cc1)[C@](O)(/C=C/C(=O)[*:3])CNCCCNC(=O)OC(C)(C)C; X4 = CCCCOC[C@@](O)(/C=C/C(=O)[*:3])[C@@H](C)Oc1ccc([C@H](N[*:1])C(=O)[*:2])cc1; X5 = C[C@@H](Oc1ccc([C@H](N[*:1])C(=O)[*:2])cc1)[C@](O)(/C=C/C(=O)[*:3])CO; Pentanoyl(2R-Me,3R-OH,4-Me) = CC(C)[C@@H](O)[C@@H](C)C(=O)*; d(aIle) = CC[C@H](C)[C@@H](N)C(=O)O; d(aThr) = C[C@@H](O)[C@@H](N)C(=O)O; NMeF = CN[C@@H](Cc1ccccc1)C(=O)O

Experiment [1] relates to Sal-resistant mutants. The following applies: Ebright et al., WO/2012/129173; cited from earlier work.
The test system of experiment [2] is Enterobacter cloacae ATCC13047. The experiment can be described thus: Antibacterial activity, broth microdilution. It is filed as cell-based. The following applies: Enterobacter cloacae, ATCC13047; minimal concentration resulting in ≧50% inhibition of bacterial growth; read-out: MIC50 Enterobacter cloacae ATCC 13047. The text has this:
(§1) Antibacterial activity was quantified using broth microdilution [Clinical and Laboratory Standards Institute (CLSI/NCCLS), Methods for Dilution Antimicrobial Susceptibility Tests for Bacteria That Grow Aerobically; Approved Standard, Eighth Edition. CLIS Document M07-A8 (CLIS, Wayne Pa.), 2009]. Assays with Enterobacter cloacae ATCC13047, Pseudomonas aeruginosa ATCC10145, and Escherichia coli D21f2to1C, employed a starting cell density of 2-5×10^5 cfu/ml, Mueller Hinton II cation adjusted broth (BD Biosciences, Inc.), and an air atmosphere. Assays with Haemophilus influenzae ATCC49247 and Neisseria gonorrhoeae ATCC19424 employed a starting cell density of 2-5×10^5 cfu/ml, Haemophilus Test Medium broth (Barry et al., 1993) and a 5% CO2/95% air atmosphere. MIC50 was defined as the minimal concentration resulting in ≧50% inhibition of bacterial growth.

In experiment [3] the test system is Escherichia coli D21f2tolC. The experiment can be described thus: Antibacterial activity, broth microdilution. The experiment is classed as cell-based. The conditions noted are these: Escherichia coli, D21F2TOLC, read-out: MIC50 Escherichia coli D21f2tolC.
Source text: as §1

Experiment [4] relates to Sal-resistant mutants. The experiment can be described thus: Cross-resistance of Sal-resistant mutants to other RNAP inhibitors. The following applies: disclosed herein. It is filed as cell-based.

Consider `ONC(=Nc1ccccc1)c1cccc(C(F)(F)F)c1` [CBR703], for which, in experiment [1], the “cross-resistance of Sal-resistant mutants to the compound” value is recorded as “not cross-resistant”.

For `CC[C@H](C)[C@H]1NC(=O)[C@@H](NC(=O)[C@H](C)[C@H](O)C(C)C)[C@@H](C)OC(=O)[C@@H]2COC(=O)CNC(=O)/C=C/[C@](O)(CNCCCNC(=O)OC(C)(C)C)[C@@H](C)Oc3ccc(cc3)[C@H](NC1=O)C(=O)N(C)[C@@H](Cc1ccccc1)C(=O)N[C@H]([C@@H](C)O)C(=O)N2` [Sal-NH(CH2)3NHBoc (7), Sal-NH(CH2)3NHBoc] ({Pentanoyl(2R-Me,3R-OH,4-Me)}-T[d(aIle)][X6][NMeF][d(aThr)]S; ester 1-C; linker 3-6 via G), the MIC50 was determined as 100 µg/mL (≈ 83.7 µM) in experiment [2] and 1.56 µg/mL (≈ 1.31 µM) in experiment [3].

Consider `CC[C@H](C)[C@H]1NC(=O)[C@@H](NC(=O)[C@H](C)[C@H](O)C(C)C)[C@@H](C)OC(=O)[C@@H]2COC(=O)CNC(=O)/C=C/[C@](O)(CNCCCCCCNC(=O)OC(C)(C)C)[C@@H](C)Oc3ccc(cc3)[C@H](NC1=O)C(=O)N(C)[C@@H](Cc1ccccc1)C(=O)N[C@H]([C@@H](C)O)C(=O)N2` [Sal-NH(CH2)6NHBoc (9), Sal-NH(CH2)6NHBoc] ({Pentanoyl(2R-Me,3R-OH,4-Me)}-T[d(aIle)][X7][NMeF][d(aThr)]S; ester 1-C; linker 3-6 via G), for which the results for the MIC50 in experiment [2] and in experiment [3] were 25 µg/mL (≈ 20.2 µM) and 0.78 µg/mL (≈ 0.631 µM), respectively.

Turning to `CCCCOC[C@@]1(O)/C=C/C(=O)NCC(=O)OC[C@@H]2NC(=O)[C@@H]([C@@H](C)O)NC(=O)[C@H](Cc3ccccc3)N(C)C(=O)[C@@H](NC(=O)[C@@H]([C@@H](C)CC)NC(=O)[C@@H](NC(=O)[C@H](C)[C@H](O)C(C)C)[C@@H](C)OC2=O)c2ccc(cc2)O[C@@H]1C` [Sal-OBu A (5A), Sal-OBu A] ({Pentanoyl(2R-Me,3R-OH,4-Me)}-T[d(aIle)][X4][NMeF][d(aThr)]S; ester 1-C; linker 3-6 via G), the MIC50 in experiment [2] came out at 12.5 µg/mL (≈ 11.4 µM); in experiment [3], 1.56 µg/mL (≈ 1.43 µM).

Take `CC[C@H](C)[C@H]1NC(=O)[C@@H](NC(=O)[C@H](C)[C@H](O)C(C)C)[C@@H](C)OC(=O)[C@@H]2COC(=O)CNC(=O)/C=C/[C@](O)(CO)[C@@H](C)Oc3ccc(cc3)[C@H](NC1=O)C(=O)N(C)[C@@H](Cc1ccccc1)C(=O)N[C@H]([C@@H](C)O)C(=O)N2` [Sal-OH (4), Sal-OH] ({Pentanoyl(2R-Me,3R-OH,4-Me)}-T[d(aIle)][X5][NMeF][d(aThr)]S; ester 1-C; linker 3-6 via G): the MIC50 in experiment [2] stood at 25 µg/mL (≈ 24.1 µM); in experiment [3], 0.78 µg/mL (≈ 0.751 µM).

Consider `CNC(=O)[C@@H](C)[C@H]1C(=O)/C(=C(O)/C=C/C(C)=C/[C@@H](C)[C@H]2O[C@@]3(C)O[C@H](C=C[C@@]34CO4)[C@@H]2C)C(=O)N1[C@@H]1CC[C@H](O)[C@H](C)O1` [streptolydigin], for which the “cross-resistance of Sal-resistant mutants with the compound” value (“cross-resistance … with the compound” for short) in experiment [4] is on record as “do not exhibit cross-resistance”.

In the case of lipiarmycin, the “cross-resistance … with the compound” value in experiment [4] is given as “do not exhibit cross-resistance”.

For myxopyronin, in experiment [4], the “cross-resistance … with the compound” value is recorded as “do not exhibit cross-resistance”.
